Laboratory results as given in ChEMBL document CHEMBL5620396, “Phenotypic screening identifies a trisubstituted imidazo[1,2-a]pyridine series that induces differentiation in multiple AML cell lines” (Eur J Med Chem, 2023).
≈ marks a conversion by molar mass, not a printed value. Calls of active or inactive are those of the source. The rule behind the calls is not given here.

Tests used:
[1] = AUC (0 to 8 hrs) in CD-1 mouse at 20 mg/kg, po administered as repeated dose on day 1 and 4; assay type: ADME, organism-based; conditions: in vivo, time 4 day
ME-1 [2] = assay: Induction of morphological changes in human ME-1 cells assessed as variations in nuclear:cytoplasmic ratio at 10 uM; assay type: functional, cell-based
ME-1 [3] = assay: Induction of morphological changes in human ME-1 cells assessed as variations in nuclear segmentation at 10 uM; assay type: functional, cell-based
OCI-AML-3 [4] = assay: Induction of morphological changes in human OCI-AML-3 cells assessed as variations in nuclear:cytoplasmic ratio at 10 uM; assay type: functional, cell-based
[5] = Plasma protein binding in mouse; assay type: ADME, cell-free; conditions: read-out: PPB (converted)
OCI-AML-3 [6] = assay: Induction of morphological changes in human OCI-AML-3 cells assessed as appearance of granules and vacuoles at 10 uM; assay type: functional, cell-based
[7] = Dose normalized Cmax in CD-1 mouse at 1 mg/kg, po administered as single dose and measured on day 1; assay type: ADME, organism-based; conditions: in vivo, 24 h, time 1 day
KG-1 [8] = assay: Induction of morphological changes in human KG-1 cells assessed as variations in cell size and shape at 10 uM; assay type: functional, cell-based
HL-60 [9] = assay: Induction of morphological changes in human HL-60 cells assessed as variations in nuclear:cytoplasmic ratio at 10 uM; assay type: functional, cell-based
ME-1 [10] = assay: Induction of morphological changes in human ME-1 cells assessed as appearance of granules and vacuoles at 10 uM; assay type: functional, cell-based
[11] = Oral bioavailability in CD-1 mouse at 3 mg/kg administered as single dose and measured over 24 hrs; assay type: ADME, organism-based; conditions: in vivo
[12] = Cmax in CD-1 mouse at 3 mg/kg, po administered as single dose and measured over 24 hrs; assay type: ADME, organism-based; conditions: in vivo
[13] = Solubility of compound at pH 1; assay type: physicochemical; conditions: buffer
[14] = Apparent permeability across apical to basolateral side in human Caco-2 cells; assay type: ADME, cell-based
[15] = Cmax in CD-1 mouse at 20 mg/kg, po administered as single dose and measured on day 1; assay type: ADME, organism-based; conditions: in vivo, time 1 day
OCI-AML-3 [16] = assay: Induction of morphological changes in human OCI-AML-3 cells assessed as variations in nuclear segmentation at 10 uM; assay type: functional, cell-based
[17] = Dose normalized AUC (0 to 8 hrs) in CD-1 mouse at 20 mg/kg, po administered as repeated dose on day 1 and 4; assay type: ADME, organism-based; conditions: in vivo, 96 h, time 4 day
[18] = Cmax in CD-1 mouse at 1 mg/kg, po administered as repeated dose on day 1 and 4; assay type: ADME, organism-based; conditions: in vivo, time 4 day
[19] = Dose normalized Cmax in CD-1 mouse at 20 mg/kg, po administered as repeated dose on day 1 and 4; assay type: ADME, organism-based; conditions: in vivo, 96 h, time 4 day
[20] = Apparent volume of distribution during terminal phase in CD-1 mouse at 3 mg/kg, po administered as single dose and measured over 24 hrs; assay type: ADME, organism-based; conditions: in vivo, read-out: Vz/F
KG-1 [21] = assay: Induction of morphological changes in human KG-1 cells assessed as appearance of granules and vacuoles at 10 uM; assay type: functional, cell-based
[22] = AUC (0 to 8 hrs) in CD-1 mouse at 20 mg/kg, po administered as single dose and measured on day 1; assay type: ADME, organism-based; conditions: in vivo, time 1 day
THP-1 [23] = assay: Induction of differentiation in human THP-1 cells assessed as upregulation of CD11b response incubated for 4 days by flow cytometry analysis; conditions: THP-1, 96 h
OCI-AML-3 [24] = assay: Induction of morphological changes in human OCI-AML-3 cells assessed as variations in cell size and shape at 10 uM; assay type: functional, cell-based
THP-1 [25] = assay: Induction of morphological changes in human THP-1 cells assessed as variations in nuclear segmentation at 10 uM; assay type: functional, cell-based
[26] = AUC (0 to 8 hrs) in CD-1 mouse at 1 mg/kg, po administered as repeated dose on day 1 and 4; assay type: ADME, organism-based; conditions: in vivo, time 4 day
[27] = Cmax in CD-1 mouse at 20 mg/kg, po administered as repeated dose on day 1 and 4; assay type: ADME, organism-based; conditions: in vivo, time 4 day
Kasumi 1 = assay: Induction of morphological changes in human Kasumi 1 cells assessed as appearance of granules and vacuoles at 10 uM; assay type: functional, cell-based
OCI-AML-3 [28] = assay: Induction of differentiation in human OCI-AML-3 cells assessed as reduction in live cell number at 123 nM incubated for 4 days by acridine orange/DAPI staining based analysis; assay type: functional; conditions: time 4.0 day
HL-60 [29] = assay: Induction of morphological changes in human HL-60 cells assessed as variations in cell size and shape at 10 uM; assay type: functional, cell-based
[30] = Half life in CD-1 mouse at 20 mg/kg, po administered as repeated dose on day 1 and 4; assay type: ADME, organism-based; conditions: in vivo, time 4 day
HL-60 [31] = assay: Induction of morphological changes in human HL-60 cells assessed as appearance of granules and vacuoles at 10 uM; assay type: functional, cell-based
OCI-AML-3 [32] = assay: Induction of differentiation in human OCI-AML-3 cells assessed as upregulation of CD11b response incubated for 4 days by flow cytometry analysis; conditions: OCI-AML-3, 96 h
[33] = Dose normalized AUC (0 to 8 hrs) in CD-1 mouse at 20 mg/kg, po administered as single dose and measured on day 1; assay type: ADME, organism-based; conditions: in vivo, 24 h, time 1 day
[34] = AUC (0 to 8 hrs) in CD-1 mouse at 1 mg/kg, po administered as single dose and measured on day 1; assay type: ADME, organism-based; conditions: in vivo, time 1 day
[35] = Solubility of compound at pH 7; assay type: physicochemical; conditions: buffer
THP-1 [36] = assay: Induction of morphological changes in human THP-1 cells assessed as variations in cell size and shape at 10 uM; assay type: functional, cell-based
[37] = Dose normalized Cmax in CD-1 mouse at 1 mg/kg, po administered as repeated dose on day 1 and 4; assay type: ADME, organism-based; conditions: in vivo, 96 h, time 4 day
[38] = Apparent clearance in CD-1 mouse at 3 mg/kg, po administered as single dose and measured over 24 hrs; assay type: ADME, organism-based; conditions: in vivo
[39] = Dose normalized AUC (0 to 8 hrs) in CD-1 mouse at 3 mg/kg, po administered as single dose and measured over 24 hrs; assay type: ADME, organism-based; conditions: in vivo
THP-1 [40] = assay: Induction of morphological changes in human THP-1 cells assessed as appearance of granules and vacuoles at 10 uM; assay type: functional, cell-based
KG-1 [41] = assay: Induction of differentiation in human KG-1 cells assessed as reduction in live cell number at 123 nM incubated for 4 days by acridine orange/DAPI staining based analysis; assay type: functional; conditions: time 4.0 day
[42] = Cmax in CD-1 mouse at 1 mg/kg, po administered as single dose and measured on day 1; assay type: ADME, organism-based; conditions: in vivo, time 1 day
KG-1 [43] = assay: Induction of morphological changes in human KG-1 cells assessed as variations in nuclear:cytoplasmic ratio at 10 uM; assay type: functional, cell-based
[44] = Dose normalized Cmax in CD-1 mouse at 20 mg/kg, po administered as single dose and measured on day 1; assay type: ADME, organism-based; conditions: in vivo, 24 h, time 1 day
HL-60 [45] = assay: Induction of differentiation in human HL-60 cells assessed as reduction in live cell number at 123 nM incubated for 4 days by acridine orange/DAPI staining based analysis; assay type: functional; conditions: time 4.0 day
[46] = Dose normalized AUC (0 to 8 hrs) in CD-1 mouse at 1 mg/kg, po administered as single dose and measured on day 1; assay type: ADME, organism-based; conditions: in vivo, 24 h, time 1 day
[47] = Toxicity in CD-1 mouse assessed as adverse effects at 3 mg/kg, po administered twice daily for 7 days; assay type: organism-based; conditions: in vivo, 168 h, time 7 day

AUC(0-t) at 96 h [1]: 4370 ng·h/mL
fraction unbound [5]: 0.005
Cmax/dose [7]: 187 ng/mL
bioavailability [11]: 100%
Cmax [12]: 360 ng/mL
solubility [13]: > 100 µM
Papp A→B [14]: 16 ×10⁻⁶ cm/s
Cmax [15]: 677 ng/mL
AUC/dose [17]: 218 ng·h/mL
Cmax [18]: 204 ng/mL
Cmax/dose [19]: 39 ng/mL
Vd/F [20]: 3.1 L/kg
AUC(0-t) at 24 h [22]: 4460 ng·h/mL
EC50 (THP-1 [23]): 69 nM
AUC(0-t) at 96 h [26]: 731 ng·h/mL
Cmax [27]: 784 ng/mL
half-life [30]: 4.1 h
EC50 (OCI-AML-3 [32]): 25 nM
AUC/dose [33]: 223 ng·h/mL
AUC(0-t) at 24 h [34]: 845 ng·h/mL
solubility [35]: 21 µM (≈ 9.44 µg/mL)
Cmax/dose [37]: 204 ng/mL
CL/F [38]: 16 mL/min/kg
AUC/dose [39]: 1021 ng·h/mL
Cmax [42]: 187 ng/mL
Cmax/dose [44]: 34 ng/mL
AUC/dose [46]: 845 ng·h/mL
SMILES: Cc1cc(F)ccc1-c1cc(NS(C)(=O)=O)c2ncc(-c3ccc4c(cnn4C)c3)n2c1
Activity (ME-1 [2]): Active
Activity (ME-1 [3]): Active
Activity (OCI-AML-3 [4]): Active
Activity (OCI-AML-3 [6]): Active
Activity (KG-1 [8]): Active
Activity (HL-60 [9]): Active
Activity (ME-1 [10]): Active
Activity (OCI-AML-3 [16]): Active
Activity (KG-1 [21]): Active
Activity (OCI-AML-3 [24]): Active
Activity (THP-1 [25]): Active
Activity (Kasumi 1): Active
Activity (OCI-AML-3 [28]): Active
Activity (HL-60 [29]): Active
Activity (HL-60 [31]): Active
Activity (THP-1 [36]): Active
Activity (THP-1 [40]): Active
Activity (KG-1 [41]): Active
Activity (KG-1 [43]): Active
Activity (HL-60 [45]): Active
Activity [47]: Non-Toxic
